Experiment [1] concerns Huh7 cells. In words: MTT cell proliferation/viability assay, Huh7. The experiment is classed as cell-based, human. The conditions noted are these: Huh7 vs U2OS, 72 h. The procedure:
MPPs were tested for effects on cell proliferation and viability using MTT (3‐(4,5‐dimethylthiazol‐2‐yl)‐2,5‐diphenyltetrazolium bromide) dye conversion assay (Cell Titer 96, Promega) as we described[22] with some modifications. Cells were plated into 96 well plates and allowed to attach overnight. MPPs were added to the cultures and then incubated for the times indicated. At assay time, MTT reagent was added and absorbance measured at 570 nm. Controls included buffer blanks containing MPP because of background absorbances reported for MPPs by us[22] and others.[23] The formula used for determination of viable cells relative to controls was: %viablecells=(abssample‐absblank)/(absconrtrol‐absblank)×100

The subject of experiment [2] is TERT, β-catenin, and cyclin D1 expression. In words: Western blot of proliferative proteins in Huh7 cells. It is filed as cell-based, human. The settings on record: Huh7, 48 h. As for the experimental part:
For SDS ‐PAGE, cellular lysates, and protein preparations such as IP were dissolved in Laemmli buffer, boiled for 1 min and separated on denaturing SDS gels as described.[28] After electrophoretic transfer of separated proteins to nitrocellulose sheets, western blot immunoassays employed enhanced chemiluminescence for signal detection (ECL^TM Prime, Amersham).[28]

The target in experiment [3] is T1, Taq DNA polymerase (Thermus aquaticus, UniProt P19821).
T1 construct: purchased Perkin‐Elmer Cetus, Norwalk, CT
T1 sequence (P19821 whole entry): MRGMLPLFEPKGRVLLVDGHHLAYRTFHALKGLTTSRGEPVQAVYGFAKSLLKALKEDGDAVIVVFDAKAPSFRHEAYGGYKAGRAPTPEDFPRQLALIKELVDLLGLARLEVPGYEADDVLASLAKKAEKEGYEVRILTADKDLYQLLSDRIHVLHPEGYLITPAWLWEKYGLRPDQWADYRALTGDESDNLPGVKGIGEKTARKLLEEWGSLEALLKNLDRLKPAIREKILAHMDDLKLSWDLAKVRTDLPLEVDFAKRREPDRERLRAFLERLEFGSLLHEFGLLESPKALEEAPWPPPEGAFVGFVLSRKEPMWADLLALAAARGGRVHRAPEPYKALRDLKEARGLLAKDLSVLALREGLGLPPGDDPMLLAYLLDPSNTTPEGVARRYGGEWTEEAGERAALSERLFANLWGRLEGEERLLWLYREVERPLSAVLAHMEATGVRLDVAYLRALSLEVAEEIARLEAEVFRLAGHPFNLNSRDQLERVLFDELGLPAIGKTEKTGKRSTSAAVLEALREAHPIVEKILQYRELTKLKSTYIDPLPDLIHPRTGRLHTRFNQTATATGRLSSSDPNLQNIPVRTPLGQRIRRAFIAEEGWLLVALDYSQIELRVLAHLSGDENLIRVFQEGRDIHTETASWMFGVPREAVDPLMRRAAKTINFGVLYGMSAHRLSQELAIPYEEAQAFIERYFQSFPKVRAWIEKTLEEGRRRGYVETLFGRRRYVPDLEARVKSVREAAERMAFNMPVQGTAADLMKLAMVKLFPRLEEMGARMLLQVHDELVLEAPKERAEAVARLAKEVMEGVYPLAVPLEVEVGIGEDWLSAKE
In words: Taq polymerase inhibition test, MPP added after the telomerase extension step of TRAP. It is filed as biochemical. The procedure: (§1) For TRAP assay, a Quantitative Telomerase Detection Kit (US Biomax, Inc) was used to assay cellular lysates or TERT immunoprecipitates (IP) according to the manufacturer's directions. Relative telomerase activity was derived from a standard curve of reference samples and data were analyzed using relative fluorescence units as compared to controls. In some cases, telomerase reaction products were visualized and quantified with TRAPeze system (EMD/Millipore). After separation of the DNA products using 10% non‐denaturing PAGE and SYBR fluorescence labeling [1x SYBR safe DNA gel stain (Invitrogen)], gel bands were imaged with iBright 1500 (Invitrogen). The intensity of the sample's TRAP ladder and internal control was first measured using GelAnalyzer [GelAnalyzer 19.1 (www.gelanalyzer.com )] as recommended. Then, the relative telomerase activity was determined by the ratio of the intensity of the sample's TRAP ladder (telomerase products, TP) to that of the internal control (IC) band.
Because of concerns that some quadruplex ligands inhibit Taq DNA polymerase in addition to telomerase, we assayed MPP inhibition at both steps of the TRAP procedure with a strategy similar to that of others.[36] Using equivalent extracts but separate assays, MPP was either included in the telomerase RT extension step or the extension step was conducted without MPP and then MPP added only for the amplification steps with Taq DNA polymerase. To avoid further potential errors introduced by Real‐time quantification, TRAP products were labeled with SYBR green, visualized on denaturing gels, and each lane was quantified by density measurements as described in the Methods. The latter step also ruled out the possibility that decreases in activity were artifactual due to fluorescence signal quenching by some MPPs.[37] […] All three MPPs had minimal effects on Taq polymerase […] and the slight inhibition of Taq polymerase seen for ZnPP was not directly concentration‐dependent.
Enzymatic extracts were prepared from semi-confluent Huh7 cells and aliquots were assayed in triplicate using TRAP assay. CoPP was added to RT-PCR reactions either before or after the RT telomere elongation step to test whether it inhibited Taq polymerase. Visualization of amplified telomeric products was on 12% denaturing gels using SYBR fluorescence labelling (upper panels). Quantification was with densitometry as described in Methods and plot shown (lower panel). Plotted points represent the mean +/- SD with n =3. (IC)= internal Taq polymerase control.

The target in experiment [4] is T2, telomerase activity in Hek293 cells (Homo sapiens, UniProt O14746).
T2 construct: Log phase Huh7, Hek293 and Huh5.15 HCV replicon cells; endogenous in cells; host or cells: Hek293 (wild type)
T2 sequence (O14746 whole entry): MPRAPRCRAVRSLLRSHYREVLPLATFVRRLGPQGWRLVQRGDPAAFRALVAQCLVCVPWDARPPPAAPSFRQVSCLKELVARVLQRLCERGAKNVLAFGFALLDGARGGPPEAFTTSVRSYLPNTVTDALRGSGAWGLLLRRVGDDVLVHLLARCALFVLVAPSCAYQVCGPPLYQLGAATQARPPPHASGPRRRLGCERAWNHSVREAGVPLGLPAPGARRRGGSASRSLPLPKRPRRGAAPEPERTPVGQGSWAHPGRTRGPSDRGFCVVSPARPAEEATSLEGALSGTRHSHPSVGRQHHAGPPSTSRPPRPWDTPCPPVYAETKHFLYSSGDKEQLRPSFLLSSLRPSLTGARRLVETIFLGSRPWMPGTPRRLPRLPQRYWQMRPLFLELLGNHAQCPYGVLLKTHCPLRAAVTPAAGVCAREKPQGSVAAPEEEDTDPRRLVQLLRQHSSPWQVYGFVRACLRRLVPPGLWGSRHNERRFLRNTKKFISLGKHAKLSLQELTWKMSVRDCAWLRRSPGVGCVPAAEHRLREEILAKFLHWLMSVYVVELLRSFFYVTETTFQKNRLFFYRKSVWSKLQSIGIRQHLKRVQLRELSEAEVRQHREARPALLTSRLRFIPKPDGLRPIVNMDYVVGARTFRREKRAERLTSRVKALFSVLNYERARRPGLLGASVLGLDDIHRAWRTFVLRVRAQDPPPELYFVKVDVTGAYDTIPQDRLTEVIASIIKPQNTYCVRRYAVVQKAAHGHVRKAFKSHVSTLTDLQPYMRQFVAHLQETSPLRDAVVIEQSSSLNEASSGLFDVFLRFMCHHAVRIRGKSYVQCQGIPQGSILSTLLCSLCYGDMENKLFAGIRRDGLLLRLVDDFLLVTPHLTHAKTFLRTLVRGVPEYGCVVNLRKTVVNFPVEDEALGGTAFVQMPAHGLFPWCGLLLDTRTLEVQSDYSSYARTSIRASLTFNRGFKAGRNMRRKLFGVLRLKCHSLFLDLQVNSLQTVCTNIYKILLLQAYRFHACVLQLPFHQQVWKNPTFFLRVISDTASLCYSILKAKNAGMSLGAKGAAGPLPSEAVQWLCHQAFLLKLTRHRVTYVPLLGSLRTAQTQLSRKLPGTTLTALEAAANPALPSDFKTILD
T2 sequence (O60832 whole entry partner): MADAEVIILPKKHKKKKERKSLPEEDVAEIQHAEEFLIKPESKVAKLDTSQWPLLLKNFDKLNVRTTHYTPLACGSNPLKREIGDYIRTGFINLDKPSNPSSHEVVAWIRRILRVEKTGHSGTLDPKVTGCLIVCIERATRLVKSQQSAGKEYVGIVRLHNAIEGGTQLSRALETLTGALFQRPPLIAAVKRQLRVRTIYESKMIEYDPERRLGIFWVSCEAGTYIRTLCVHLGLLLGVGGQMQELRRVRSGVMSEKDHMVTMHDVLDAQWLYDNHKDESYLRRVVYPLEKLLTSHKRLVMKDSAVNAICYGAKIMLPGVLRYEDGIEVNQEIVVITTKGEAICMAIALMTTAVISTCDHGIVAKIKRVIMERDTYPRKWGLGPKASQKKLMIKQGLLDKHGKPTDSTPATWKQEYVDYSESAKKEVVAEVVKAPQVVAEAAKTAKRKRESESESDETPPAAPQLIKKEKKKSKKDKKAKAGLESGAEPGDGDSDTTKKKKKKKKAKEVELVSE
T2 sequence (Q9NPE3 whole entry partner): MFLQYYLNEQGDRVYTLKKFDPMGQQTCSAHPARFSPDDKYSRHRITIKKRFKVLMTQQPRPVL
T2 sequence (Q9NX24 whole entry partner): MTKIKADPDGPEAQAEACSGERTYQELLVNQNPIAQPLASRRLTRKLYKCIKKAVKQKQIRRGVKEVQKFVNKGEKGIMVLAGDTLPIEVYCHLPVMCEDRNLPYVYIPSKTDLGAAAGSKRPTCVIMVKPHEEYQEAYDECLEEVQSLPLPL
T2 sequence (Q9NY12 whole entry partner): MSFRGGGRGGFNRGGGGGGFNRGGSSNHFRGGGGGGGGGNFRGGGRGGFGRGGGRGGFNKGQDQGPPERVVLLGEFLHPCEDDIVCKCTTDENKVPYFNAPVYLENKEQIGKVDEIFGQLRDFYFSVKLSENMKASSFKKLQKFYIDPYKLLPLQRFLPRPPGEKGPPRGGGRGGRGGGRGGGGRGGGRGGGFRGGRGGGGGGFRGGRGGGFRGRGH
T2 sequence (Q9BUR4 whole entry partner): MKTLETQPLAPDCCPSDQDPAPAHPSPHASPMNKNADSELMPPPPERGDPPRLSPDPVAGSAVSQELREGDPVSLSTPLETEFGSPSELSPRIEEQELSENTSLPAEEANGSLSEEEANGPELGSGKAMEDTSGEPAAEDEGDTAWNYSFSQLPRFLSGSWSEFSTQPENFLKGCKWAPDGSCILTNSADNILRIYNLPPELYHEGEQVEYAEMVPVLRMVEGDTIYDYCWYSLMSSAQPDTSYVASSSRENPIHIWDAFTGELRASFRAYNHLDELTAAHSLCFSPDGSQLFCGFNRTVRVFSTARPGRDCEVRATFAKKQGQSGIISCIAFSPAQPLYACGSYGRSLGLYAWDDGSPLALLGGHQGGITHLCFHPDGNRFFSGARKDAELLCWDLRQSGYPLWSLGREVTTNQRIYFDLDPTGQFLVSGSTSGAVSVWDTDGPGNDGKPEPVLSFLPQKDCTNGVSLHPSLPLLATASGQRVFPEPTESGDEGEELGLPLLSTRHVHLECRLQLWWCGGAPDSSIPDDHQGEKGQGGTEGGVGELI
In words: Telomerase activity by TRAP after incubation of intact Hek293 cells with MPP. It is filed as cell-based. As for the experimental part:
(§2) Telomerase reverse transcriptase (TERT) enzymatic activity was determined using Telomeric Repeat Amplification Protocol (TRAP) with Real‐time quantification as described previously,[25] or measured directly using α‐^32P‐dGTP incorporation as described[26] with modifications as below.
as §1
(§3) The EC50 was the extracellular concentration of MPP inhibitor calculated to result in 50% reduction of cellular telomerase activity after incubation in whole cells. Similarly, IC50 was the concentration of MPP inhibitor necessary to inhibit 50% of telomerase enzyme activity in vitro in cellular lysates. Both were calculated using GraphPad as directed and verified graphically on plots of enzyme activity vs inhibitor concentration.

The target of experiment [5] is T3, telomerase activity in Huh7 cells (Homo sapiens, UniProt O14746).
T3 construct: Enzymatic extracts were prepared from semi‐confluent phase Huh7 cells and aliquots were assayed in triplicate using TRAP assay; endogenous in cells; host or cells: Huh7
T3 sequence (O14746 whole entry): as the sequence (O14746 whole entry) above
T3 sequence (O60832 whole entry partner): as the sequence (O60832 whole entry partner) above
T3 sequence (Q9NPE3 whole entry partner): as the sequence (Q9NPE3 whole entry partner) above
T3 sequence (Q9NX24 whole entry partner): as the sequence (Q9NX24 whole entry partner) above
T3 sequence (Q9NY12 whole entry partner): as the sequence (Q9NY12 whole entry partner) above
T3 sequence (Q9BUR4 whole entry partner): as the sequence (Q9BUR4 whole entry partner) above
In words: Telomerase activity by TRAP after incubation of intact Huh7 cells with MPP. The experiment is classed as cell-based. The procedure: as §2, §1, §3

The target in experiment [6] is T4, telomerase (Homo sapiens, UniProt O14746). In words: TRAP (TRAPeze) telomerase activity assay in Huh7 cellular lysates/enzymatic extracts. Set-up: Enzymatic extracts were prepared from semi‐confluent phase Huh7 cells and aliquots were assayed in triplicate using TRAP assay; endogenous in cells; host or cells: Huh7. The experiment is classed as biochemical. As for the experimental part: as §2, §1, §3
Target sequence in this assay (O14746 whole entry): as the sequence (O14746 whole entry) above
Target sequence in this assay (O60832 whole entry partner): as the sequence (O60832 whole entry partner) above
Target sequence in this assay (Q9NPE3 whole entry partner): as the sequence (Q9NPE3 whole entry partner) above
Target sequence in this assay (Q9NX24 whole entry partner): as the sequence (Q9NX24 whole entry partner) above
Target sequence in this assay (Q9NY12 whole entry partner): as the sequence (Q9NY12 whole entry partner) above
Target sequence in this assay (Q9BUR4 whole entry partner): as the sequence (Q9BUR4 whole entry partner) above

In experiment [7] the target is T4, telomerase. In words: Direct α-32P-dGTP telomerase extension assay, IP eluates of HEK-293T cells overexpressing TERT, TERC and dyskerin. Details: purchased Abbexa Ltd (UK) Abx069991; host or cells: HEK-293T cells overexpressing TERT, TERC and dyskerin. The conditions noted are these: Table 2b; mean of 2–4 experiments. It is filed as biochemical. As for the experimental part:
For direct telomerase activity assay, a modified procedure of Tomlinson et al[26] was used. Briefly, HEK‐293T cell pellet from 10^7 cells overexpressing TERT, TERC, and dyskerin was obtained from Abbexa Ltd (UK. Abx069991). The whole‐cell lysate was produced using 1ml buffer A [20 mM HEPES‐KOH buffer (pH 8), 300 mM KCl, 2 mM MgCl2, 0.1% v/v Triton X‐100, 10% v/v glycerol]. Immunoprecipitation of telomerase was performed with anti‐hTERT polyclonal sheep antibody (abx120550, Abbexa, U.K.). The telomerase was finally eluted with hTERT peptide (abx069990, Abbexa, U.K.). 10µl of eluates were mixed with different concentrations of MPP and incubated on ice for 2 h. Then the pellet‐MPP complex was added to the extension reaction mixture composed of 1x telomerase buffer, 300 mM KCl, 1 µM Bio‐L‐18GGG, 1 mM dATP, 1 mM dTTP, 10 µM dGTP, 20 µCi α‐^32P‐dGTP, 10 mM DTT, 5’ biotinylated DNA substrate (5’‐CTAGACCTGTCATCA(TTAGGG)3‐3’) and 10% glycerol. The reaction was conducted at 37 °C for 2 h. The purification of telomerase extension products employed Dynabeads M‐280 streptavidin. Five microliters of purified products were loaded on 6% sequencing gel (TBE‐UREA denaturing gel) with Model S2 Sequencing Gel Electrophoresis Apparatus (LabRepCo, Horsham, PA). […] This screen was then scanned using a STORM phosphorimager (Molecular Dynamics), and bands were quantified using GelAnalyzer as described above. […]
Target sequence in this assay (O14746 whole entry): as the sequence (O14746 whole entry) above
Target sequence in this assay (O60832 whole entry partner): as the sequence (O60832 whole entry partner) above
Target sequence in this assay (Q9NPE3 whole entry partner): as the sequence (Q9NPE3 whole entry partner) above
Target sequence in this assay (Q9NX24 whole entry partner): as the sequence (Q9NX24 whole entry partner) above
Target sequence in this assay (Q9NY12 whole entry partner): as the sequence (Q9NY12 whole entry partner) above

Experiment [8] deals with high molecular weight complexes containing telomerase. In words: Fluorescent labelling of cellular lysate complexes on non-denaturing 0.8% agarose gels. It is filed as binding, human. The conditions noted are these: Huh7 lysates, fluorescence visualization. The procedure:
0.8% Agarose gels were run in Tris‐Borate‐EDTA buffer using standard slab gels as described for high molecular weight complexes.[27] Cell lysates were produced by lysing Hek293 and Huh7 cells in NP40 buffer (25 mM HEPES‐KOH, 150 mM KCl, 1.5mM MgCl2, 10% glycerol, 0.5% NP40, 5 mM 2ME, pH 7.5 supplemented with protease inhibitors) for 30 min on ice. Extracts were clarified by centrifugation for 16 000 g for 10 min. The protein concentration was determined by Bradford assay. The indicated amounts of proteins were treated with different amounts of ZnPP for 2 h on ice, and then separated on 0.8% Agarose gels prepared with 0.5xTris‐Borate‐EDTA (TBE) buffer. The gels were run at 100 V for 2 h at 4 °C in 0.5x TBE buffer. […] No antibody and normal rabbit IgG (sc‐2027, Santa Cruz Biotechnology) were included as controls. The IP products were treated with ZnPP and electrophoresed as above. Free ZnPP and ZnPP bound to large complexes were visualized using a wide‐wavelength UV lightbox or with red fluorescence using excitation (EX) 608–632 nm and emission (EM) 675–720 nm. Thyroglobulin (670 kD), a heavy MW marker, was run in parallel lanes and visualized with Coomassie Blue staining or fluorescence to size the complexes. In some cases, cell lysates or IP were incubated with RNase A (Life Technologies, NY); or DNase 1 (Qiagen, CA) 100 µg/ml for 1 h at 4 °C prior to electrophoresis.

Setting [9] is: TRAP, MPP added for the amplification steps only.
The mark [10] stands for this setting: Figure 3A middle panel, 48 h, read-out: EC50 of telomerase activity in cultured Hek293 cells.
Setting [11] is: Table 2d, mean of 2–4 experiments, 48 h incubation, read-out: EC50, intact Hek293 cells [TRAP].
The mark [12] stands for this setting: Figure 3A upper panel, 48 h, read-out: EC50 of telomerase activity in cultured Huh7 cells.
Setting [13] is: Table 2c, mean of 2–4 experiments, 48 h incubation, read-out: EC50, intact Huh7 cells [TRAP].
Setting [14] is: Table 2a, mean of 2–4 experiments, 6 inhibitor concentrations 0–20 µM, read-out: IC50, cellular lysates [Trapeze].
[15] abbreviates: individual experiment, Figure 3B-D, gel densitometry, read-out: IC50 of telomerase activity, TRAP in Huh7 extracts.

The values that follow come from publication PMC8573827, “Zinc protoporphyrin binding to telomerase complexes and inhibition of telomerase activity” (Pharmacology Research & Perspectives, 2021).

Where two headings read alike, the source gives them in different places.

The EC50 is the concentration needed to bring the measured effect to its halfway point. The term IC50 denotes the concentration that gives 50% inhibition.

Take `C/C(=C\C(=O)Nc1ccccc1C(=O)O)c1ccc2ccccc2c1` [BIBR, reference compound]: the “Effect on proliferation, telomerase-expressing vs telomerase negative line” value in experiment [1] is “greater propensity to decrease proliferation”.

For `C=CC1=C(C)c2cc3[n-]c(cc4nc(cc5[n-]c(cc1n2)c(C)c5CCC(=O)[O-])C(CCC(=O)[O-])=C4C)c(C)c3C=C.[Co+2].[H+].[H+]` [CoPP, cobalt protoporphyrin], in experiment [2], the “Effect on expression of TERT, β-catenin and cyclin D1 (western blot)” value (from here on “Effect on expression of TERT”) is given as “failed to significantly alter”. Also, the “Effect on Taq polymerase” value in experiment [3] (setting [9]) is reported as “clearly inhibited Taq polymerase”; in experiment [3] (concentrations of 5-10 µM, Figure S2) it was “potent antagonist”.

Take `C=CC1=C(C)c2cc3[n-]c(cc4[n-]c(cc5nc(cc1n2)C(C)=C5C=C)c(C)c4CCC(=O)O)c(CCC(=O)O)c3C.[Fe+2]` [FePP, iron protoporphyrin (heme)]: the EC50 in experiment [4] (setting [10]) was over 10 µM; in experiment [4] (setting [11]), over 20 µM; in experiment [5] (setting [12]), over 10 µM; in experiment [5] (setting [13]), over 20 µM. For the same molecule, the “Effect on expression of TERT” value in experiment [2] was “failed to significantly alter”. Further, the “Effect on Taq polymerase” value in experiment [3] (setting [9]) is recorded as “minimal inhibition”. Besides, the IC50 in experiment [6] (setting [14]) is over 20 µM; in experiment [6] (setting [15]), over 10 µM; in experiment [7] it was 18.3 µM.

Take `C=Cc1c2[n-]c(c1C)/C=c1\[n-]/c(c(C)c1C=C)=C\c1[n-]c(c(CCC(=O)O)c1C)/C=c1\[n-]c(c(C)c1CCC(=O)O)=C2.[Sn+4]` [SnPP, tin protoporphyrin]: the EC50 in experiment [4] (setting [10]) is over 10 µM; in experiment [4] (setting [11]) it was over 20 µM; in experiment [5] (setting [12]) it was over 10 µM; in experiment [5] (setting [13]) it was 10.8 µM. Also, in experiment [2], the “Effect on expression of TERT” value is given as “failed to significantly alter”. Besides, the “Effect on Taq polymerase” value in experiment [3] (setting [9]) is reported as “minimal inhibition”. Besides, the IC50 in experiment [6] (setting [14]) was 12 µM; in experiment [6] (setting [15]), over 10 µM; in experiment [7], over 20 µM. Also, in experiment [8], the “Labelling/binding of cellular complexes on agarose gels” value is given as “did not label a discernable cellular complex”.
